This assay relates to Eimeria acervulina, Eimeria maxima, and Eimeria tenella. Nature of the assay: Second study: floor-pen broilers, cocci-challenge plus built-up litter, dried bacterial biomass in feed, 28 days. Type of assay: in vivo, broiler chickens. The settings on record: column F of the chart.

Regarding `CC[C@@]1([C@@H]2O[C@@H]([C@H]3O[C@@](O)(CO)[C@H](C)C[C@@H]3C)C[C@@H]2C)CC[C@H]([C@]2(C)CC[C@]3(C[C@H](O)[C@@H](C)[C@@H]([C@@H](C)[C@@H](OC)[C@H](C)C(=O)O)O3)O2)O1` [Coban, Monensin], the “Lesion Score Ileum Day 28” value was found to be 0.325.
